Assay: gradient 5% acetonitrile 3 min, to 50% in 2 min, to 85% in 15 min, held 3 min, 100 µL/min
Conditions: column: Zorbax Extend-C18 2.1 x 50 mm; eluents: water / acetonitrile, 0.1% formic acid
How it was run: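 Retention times of pure standards were taken from adduct peaks that were selected by computer and manually inspected. Over 3 months, mixtures of ~100 molecules were run by HPLC–quadrupole time-of-flight mass spectrometry in positive and negative ionization mode. The Zorbax Extend-C18 column (2.1 × 50 mm, 1.8 μm) ran at 100 μL/min in water and acetonitrile, each containing 0.1% formic acid, with 40 μL dead volume and 900 μL dwell volume.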

Compound	RP-LC retention time [s]
O=C(Nc1ccc2nc(N3CCN(C4CCCCC4)CC3)cc(C(=O)O)c2c1)c1ccc(F)cc1	625
O=C(Nc1nnc(Cc2ccc3c(c2)OCCO3)o1)c1sc2ccccc2c1Cl	950
COc1ccc(OC)c(CNC(=O)c2cc3c(=O)n(C)ccc3n2C)c1	692
O=C(CCC[C@@H]1[C@H]2CCCN3CCC[C@@H](CN1C(=O)c1ccccc1)[C@@H]23)NC1CCS(=O)(=O)C1 (some centres undefined)	574
c1cc(Cc2nc(-c3ccc4c(c3)ncn4CCN3CCCCC3)no2)cs1	632
NC(=O)C1CCN(C2CC(=O)N(c3ccccc3Sc3ccccc3)C2=O)CC1 (centres undefined)	650
CC(C)CNC(=O)c1ccc2c(ccn2C)c1	784
COc1ccc(-c2nc(N(C)C3CCCCC3)c3ccccc3n2)cc1	918
COc1ccc(-c2noc(Cc3nc(-c4cc(C)c(C)cc4C)cs3)n2)cc1	1340
Cc1cc(-c2nnc(-c3ccc(F)cc3)o2)c(C)n1CC(=O)Nc1ccccc1	977
Cn1nccc1-c1cccc(-c2noc(-c3ccccc3)n2)c1	1120
COc1ccc(-n2c(C)nc3ccc(NC(=O)C4CC4)cc3c2=O)cc1	683
Cc1cnc(C2CCC2)n1C1CCN(C(=O)C2(c3ccccc3)CC2)CC1	663
O=C(CCC1CCCC1)Nc1ccc(CC(=O)NC2CC2)cc1	738
O=C(NC1(c2nc(-c3cnccn3)no2)CCCCC1)c1cc2cc(Cl)ccc2[nH]1	916
Cc1ncsc1CN1CC(Cn2c(C)cnc2-c2ccncc2)C1	818
Cc1ccc(N2CCC(NC(=O)c3ccc(Cl)s3)C2=O)cc1 (centres undefined)	888
CCCn1cc(S(=O)(=O)Nc2ccccc2OC)c2cccnc21	904
Cn1ccc2c(cc(C(=O)NCc3cccc(C(F)(F)F)c3)n2C)c1=O	771
CC(=O)N1CCCC1c1nc(C2CN(C(=O)NCc3ccco3)C2)no1 (centres undefined)	617
CC(C)C(=O)NCc1csc(C2CCCN(C(=O)c3cc(F)cc(F)c3)C2)n1 (centres undefined)	757
CCOc1ccccc1NC(=O)N(C)CCc1noc(C2CCCCC2)n1	1070
CCOc1ccc(Nc2c(C(=O)N3CCSCC3)cnc3nc(C)ccc23)cc1	642

Compound	RP-LC retention time [s]
CCn1nccc1-c1cccc(-c2noc(-c3ccc(Cl)cc3)n2)c1	1340
Cc1cc(C)c(NC(=O)Cn2nc3c4cccc(C)c4ncn3c2=O)c(C)c1	679
CCc1noc(NC(C)=O)c1-c1ccc(C)c(S(=O)(=O)Nc2ccccc2Cl)c1	829
Cc1cc(C)nc(Nc2nc3ccccc3[nH]2)n1	615
CCOc1ccc(-c2csc3c(=O)n(Cc4ccncc4)cnc23)cc1OCC	693
O=C(NCCc1ccsc1)C(=O)NCC(F)(F)F	756
CCN(CC)c1ccc(-c2nc3ncccn3c2NCc2ccccc2)cc1	712
CC(C)c1noc(C2(NC(=O)c3cccc(F)c3)CCCCC2)n1	1040
COc1ccc(-c2ncc3c(n2)CCN(C(=O)Nc2cccc(Cl)c2C)C3)cc1	1170
CCCn1cc(-c2ccncc2)cc1C(=O)Nc1ccc2c(c1)OCCO2	679
COc1ccc(C2C(C(=O)NCc3ccccn3)c3cc(OC)c(OC)cc3C(=O)N2C)cc1OC (centres undefined)	595
O=C(c1ccc2ccnc(N3CCN(c4ccccc4)CC3)c2c1)N1CCC(N2CCCCC2)CC1	589
Cc1ccc(N2CCN(CC(O)COc3ccccc3)CC2)cc1 (centres undefined)	698
Fc1ccc(Cl)cc1-c1nc(Nc2ccncc2)c2nccnc2n1	648
CSc1ccc(-c2noc(-c3nn(-c4cccc(Br)c4)ccc3=O)n2)cc1	988
CCOCCCNC(=O)c1ccc(OCc2nnc(C(=O)Nc3ccc(F)c(F)c3)s2)cc1	912
CCCN1C(=O)c2cc(S(=O)(=O)Nc3ccc(Cl)cc3)ccc2Oc2cccnc21	1110
Cc1ccc2nc(C(=O)N3CCN(c4ccc(F)cc4)CC3)cn2c1	650
Cc1ccccc1Nc1c(-c2ccc(N3CCOCC3)cc2)nc2cnccn12	822
Oc1c(C(Nc2ccccn2)c2ccccc2F)ccc2cccnc12 (centres undefined)	604
CCn1cnc(S(=O)(=O)N2CCCC(C(=O)NCc3ccc(Cl)cc3)C2)c1 (centres undefined)	756
COc1ccc(-c2noc(-c3nc(Cc4ccccc4)no3)n2)cc1	1170
CCC(=O)Nc1ccc(SCc2cc(C)ccc2C)nn1	919

Compound	RP-LC retention time [s]
O=C(NCc1cc(F)cc(F)c1)C1CCc2nc(N3CCCCC3)ncc2C1 (centres undefined)	778
COc1cccc(NS(=O)(=O)c2cc3n(c2)CCN(CC(C)C)C3=O)c1	784
O=C(NC1CC1)c1nc(C(=O)N2CCN(c3ccccc3)CC2)cs1	759
Cc1ccc(NC(=O)C2CCN(C(=O)C3Sc4ccccc4NC3=O)CC2)cc1Cl (centres undefined)	878
O=C(NCc1ccccc1Cl)C1c2ccccc2CCN1C(=O)C1CC1 (centres undefined)	881
Cc1ccc(N2CN(CC(=O)Nc3cccc(Cl)c3)S(=O)(=O)c3cccnc32)cc1	1030
Cc1ccc(S(=O)(=O)Nc2ccc3nc(N4CCN(CCC#N)CC4)cc(C(=O)O)c3c2)cc1C	614
CCN1C(=O)c2cccnc2Sc2cc(NC(=O)Cc3ccc(F)cc3)ccc21	816
Cc1cc(-c2csc(S(=O)(=O)N3CCN(C(c4ccccc4)c4ccccc4)CC3)c2)on1	1200
COc1ccc(CN(Cc2cc(=O)n3ccccc3n2)CC(C)C)cc1OC	615
CCOc1ccccc1NC(=O)N1CC(n2cnnc2-c2ccccc2)C1	722
CCC(C)NC(=O)c1cc2c(n(-c3ccc(C(F)(F)F)cc3)c1=O)CCCC2=O (centres undefined)	946
Cc1ccc(Cl)c(NC(=O)c2nc(C)oc2C)c1	1140
Cc1ccc(C(=O)N2CCC(Nc3ncnc4c3CCC4)C2)s1 (centres undefined)	585
O=C(Cn1nc(C(=O)N2CCOCC2)c2ccccc21)N1CCN(c2ccccn2)CC1	594
CCc1ccc(NC2CC(=O)N(c3ccc(OC)cc3OC)C2=O)cc1 (centres undefined)	887
CCOc1cccc(-c2noc(Cn3c(=O)n(-c4cccc(OC)c4)c(=O)c4sccc43)n2)c1	970
CCCn1cc(CCNC(=O)c2ccc(F)cc2)c2cccnc21	732
O=C(Nc1ccccc1)N1C[C@@H]2C(=O)N(CCc3ccccc3)C(=O)[C@@H]2C1	789
Cc1cccc(NC(=O)C2CC(=O)N(c3n[nH]c4cccc(F)c34)C2)c1C (centres undefined)	770
Cc1cc(C)cc(Nc2c(-c3cc(Br)ccc3O)nc3ncccn23)c1	1140
O=C(NC1CC1)c1ccc(OCC2CCN(C(=O)c3ccccc3C(F)(F)F)CC2)cc1	836
CCc1cc(=O)n(CC(=O)NCc2cccc(OC)c2)c(N)n1	584

Compound	RP-LC retention time [s]
O=S(=O)(Cc1ccccc1)N1CCC(n2c(-c3ccco3)nc3cccnc32)C1 (centres undefined)	802
Cc1ccc(CCNC(=O)c2cc3n(n2)CC(C)(C(=O)NC2CCCCC2)N(C)C3=O)cc1 (centres undefined)	844
CCCCn1c(=O)c2ccccc2n(Cc2nc(-c3ccccc3C)no2)c1=O	1240
CCC(C(=O)N1CCN(c2cc(C)n3cnnc3n2)CC1)c1ccccc1 (centres undefined)	864
Cc1cc(NCCOCCO)n2nc(-c3ccc(Cl)cc3)c(C)c2n1	644
CSc1ncn(-c2nc(NC(C)C)nc(NC(C)C)n2)n1	875
O=C(NCCc1ccccc1)c1c(O)c2sccc2n(Cc2ccccc2)c1=O	1270
CCCc1noc(-c2ccnc(-n3ncc(C(=O)NCC)c3C)c2)n1	828
CC(C)NC(=O)C1Cn2cccc2C(=O)N1 (centres undefined)	578
Cn1nc(N2CCC(NC(=O)CCC3CCCC3)C2)ccc1=O (centres undefined)	716
Cc1cc(C(=O)Nc2ccc(F)cc2F)nc2cc(-c3ccco3)nn12	1130
COc1cc(NC(=O)C2CCN(S(=O)(=O)c3c(C)nn(-c4ccccc4)c3C)CC2)cc(OC)c1	848
CCn1cc(CN2CCC(C(=O)NC(C)c3ccccc3)CC2)c2cc(Cl)ccc21 (centres undefined)	753
CCCn1cc(CCNC(=O)c2ccc(Cl)cc2)c2cccnc21	821
Cc1ccc2oc(-c3noc(C(=O)NCCCN4CCCC4)n3)c(C)c2c1	717
COc1ccc(C)cc1NC(=O)C(C)C1CCN(C(=O)Nc2ccc(Cl)cc2)CC1 (centres undefined)	986
COc1ccc(NC(=O)C2CCN(S(=O)(=O)c3cc(-c4noc(C)n4)cs3)CC2)c(OC)c1	885
CCCN1C(=O)c2c(C(=O)NCc3cccc(C)c3)ncn2CC1(C)C(=O)NCCC(C)C (centres undefined)	879
CC(=O)Nc1ccc2nc(-c3ccc(Cl)cc3)cc(OCC(N)=O)c2c1	621
CCOc1ccc(CCNc2nc(-c3ccc(OC)c(OC)c3)no2)cc1	967

Source: the METLIN SMRT retention time set (Domingo-Almenara et al. 2019)
